Results as given in patent EP2431033A1, “Dronedarone for preventing cardiovascular hospitalization or mortality in patients with lone atrial fibrillation” (SANOFI, priority 2010, dated 2012).

What was measured:
patients without lone AF = assay: Post-hoc analysis of EURIDIS, ADONIS and ATHENA trials, patients without lone AF; assay type: in vivo
Text: (§1) The present invention is illustrated by data from a post-hoc analysis of patients with lone atrial fibrillation enrolled in the clinical trials called EURIDIS, ADONIS and ATHENA trials with the following endpoints: • cardiovascular hospitalization or death from any cause • cardiovascular hospitalization • all cause mortality • cardiovascular mortality
(§2) Individual data from patients with lone AF enrolled in the EURIDIS, ADONIS and ATHENA trials were entered in a central database. (SAS version 8.2). The institutional review board at each site approved the study, and all patients gave written informed consent for taking part in the studies. In short, common enrolment criterion for these studies was the presence of paroxysmal or persistent AF. Patients with permanent AF or with unstable hemodynamic conditions were excluded from participation.
(§3) Lone AF was defined as AF occurring in patients without structural heart disease or arterial hypertension hypertension (not treated with blood pressure lowering medications), and without extracardiac diseases associated with AF (i.e. thyroid disorders).
(§4) In all 3 studies, patients were randomly assigned to double-blind treatment with dronedarone 400 mg BID or matching placebo. Hospitalisation was defined as at least one overnight stay. The main outcome measure of this post-hoc analysis was the time to the composite endpoint of first hospitalization for cardiovascular reasons or death from any cause, and their individual components.
(§5) Baseline parameters of patients with and without lone AF were compared with logistic regression analysis for qualitative and an ANOVA test for quantitative variables. All outcomes were estimated with the use of the Kaplan-Meier method and compared by means of the log-rank test. […] All P values are two-tailed, and statistical significance was assumed at a p-value of 0.05 or smaller.
(§6) The results obtained in this trial were analysed by the Kaplan Meier method for the figures, and the relative risk (RR) was estimated using Cox's proportional-effect regression model.
(§7) The relative risk (RR) is the ratio of the rates of occurrence of a hospitalization or of a death among the patients on dronedarone, relative to the patients on placebo.

patients with lone AF = assay: Post-hoc analysis of EURIDIS, ADONIS and ATHENA trials, patients with lone AF; assay type: in vivo; conditions: for Number of patients with endpoint (lone AF): first cardiovascular hospitalization or death from any cause
Text: as §1, §2, §3, §4, §5, §6, §7

[1] = first cardiovascular hospitalization, patients without lone AF at baseline, 400mg BID
[2] = first cardiovascular hospitalization, patients with lone AF at baseline, 400mg BID
[3] = patients with lone AF, compared to placebo, x = 1-relative risk

What does the source list for `CCCCc1oc2ccc(NS(C)(=O)=O)cc2c1C(=O)c1ccc(OCCCN(CCCC)CCCC)cc1` [Dronedarone, 2-n-Butyl-3-[4-(3-di-n-butylaminopropoxy)benzoyl]-5-methylsulphonamidobenzofuran]?
Cumulative incidence of events at 1 year (patients without lone AF; [1]): 0.208; Cumulative incidence of events at 2 years (patients without lone AF; [1]): 0.321; Cumulative incidence of events at 6 months (patients without lone AF; [1]): 0.135; Relative risk (patients without lone AF; first cardiovascular hospitalization, patients without lone AF at baseline, vs placebo, cause-specific Cox regression model adjusted on studies): 0.758; reduction of the risk of CV hospitalizations or death (patients without lone AF; patients with other forms of AF): 23%; drug discontinuation (patients without lone AF; patients with other forms of AF, dronedarone arm vs placebo arm): more often; Number of patients with endpoint (lone AF) (patients with lone AF; ADONIS, 400mg BID, N=64): 1 (N=64); Number of patients with endpoint (lone AF) (patients with lone AF; ATHENA, 400mg BID, N=95): 26 (N=95); Number of patients with endpoint (lone AF) (patients with lone AF; EURIDIS, 400mg BID, N=81): 7 (N=81); Number of patients with endpoint (lone AF) (patients with lone AF; Lone AF population (3 studies pooled), 400mg BID, N=240): 34 (N=240); Cumulative incidence of events at 1 year (patients with lone AF; [2]): 0.113; Cumulative incidence of events at 2 years (patients with lone AF; [2]): 0.195; Cumulative incidence of events at 6 months (patients with lone AF; [2]): 0.057; Relative risk (patients with lone AF; first cardiovascular hospitalization, patients with lone AF at baseline, vs placebo, cause-specific Cox regression model adjusted on studies): 0.543; risks for adverse events between placebo and dronedarone (patients with lone AF; independent from the AF type): No difference; cardiovascular hospitalisations for AF or other supraventricular arrhythmias (patients with lone AF; lone AF, dronedarone group, out of all cardiovascular hospitalisations): 16 of 30; All-cause mortality (HR) (patients with lone AF; lone AF, dronedarone vs placebo, 95%CI=0.31-3.43, p=0.885): 1.02; cardiovascular hospitalizations alone, HR (patients with lone AF; patients with lone AF, compared to placebo, 95%CI=0.34-0.87, p=0.004): 0.54; cardiovascular hospitalizations or death, hazard ratio (HR) (patients with lone AF; patients with lone AF, compared to placebo, 95%CI=0.36-0.88, p=0.004): 0.56; reduction in cardiovascular hospitalizations alone (patients with lone AF; [3]): 46%; reduction of cardiovascular hospitalizations or death (patients with lone AF; [3]): 44%; drug discontinuation rate (patients with lone AF; patients with lone AF, dronedarone arm vs placebo arm): similar
